Measured values published in US9839642B2, “Beta-tetrazolyl-propionic acids as metallo-beta-lactamase inhibitors” (priority 2014, dated 2017).
Read-outs that look alike come from different tables or passages of the source.

What was measured:
IMP-1 = IMP-1 (Serratia marcescens, UniProt P52699); test: Enzyme activity: determination of IC50, fluorescence assay with CCF2-FA substrate; format: biochemical; details: CCF2-FA 1.25 μM, 2 hours at 25° C., read-out: IMP1 IC50
In short: (§1)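 Enzyme (1 pM NDM-1, 2 pM IMP-1, 30 pM VIM-1) incubated with inhibitor (20 to 0.00063 μM) and 1.25 μM CCF2-FA in 100 mM KH2PO4 pH 7, 0.005% Tween-20, 10 μM ZnSO4, 2 h at 25 °C. Fluorescence read at 460 nm (ex 405 nm); IC50 by 4-parameter fit.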

NDM-1 = NDM-1 (Klebsiella pneumoniae, UniProt C7C422); test: as above; format: biochemical; details: CCF2-FA 1.25 μM, 2 hours at 25° C.
In short: as §1

VIM-1 = VIM-1 (Pseudomonas aeruginosa, UniProt A0A0F7KYQ8); test: as above; format: biochemical; details: CCF2-FA 1.25 μM, 2 hours at 25° C., read-out: VIM1 IC50
In short: as §1

[1] = tested on: Escherichia coli expressing NDM-1 (CLB30005); test: Antibiotic potentiation activity: synergistic concentration (MITC95) with imipenem, growth by OD600; format: cell-based
In short: (§2)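 Strains grown overnight at 35° C, resuspended in saline, diluted 1:100 into 1.1×CAMHB; imipenem at 1 μg/ml or 4 μg/ml with test compound 200 μM to 0.195 μM. Incubated 22 hours to 24 hours at 35° C, OD600 read; MITC95 is lowest compound concentration inhibiting 95% of growth.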

[2] = tested on: Klebsiella pneumoniae expressing VIM-1 (IHMA599644); test: as above; format: cell-based
In short: as §2

[3] = tested on: Serratia marcescens expressing IMP-1 (CL5741); test: as above; format: cell-based
In short: as §2

[4] = enzyme 1 pM, read-out: NDM1 IC50
[5] = 95% inhibition of bacterial growth, strain CLB30005
[6] = 95% inhibition of bacterial growth, strain IHMA599644
[7] = 95% inhibition of bacterial growth, strain CL5741
[8] = NDM-1 enzyme 1 pM, read-out: NDM1 IC50
[9] = E. coli CLB30005 (NDM-1), 95% inhibition of growth
[10] = K. pneumoniae IHMA599644 (VIM-1), 95% inhibition of growth
[11] = S. marcescens CL5741 (IMP-1), 95% inhibition of growth

Chain of NDM-1 (C7C422 29-270, looked up, species assumed): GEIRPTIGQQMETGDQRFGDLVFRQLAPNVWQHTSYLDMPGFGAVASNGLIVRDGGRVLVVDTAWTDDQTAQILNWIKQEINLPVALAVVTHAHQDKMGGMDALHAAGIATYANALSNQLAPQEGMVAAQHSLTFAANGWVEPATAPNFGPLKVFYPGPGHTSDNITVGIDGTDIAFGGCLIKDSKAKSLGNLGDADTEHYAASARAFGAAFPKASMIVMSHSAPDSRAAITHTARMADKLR
Chain of IMP-1 (P52699 19-246, looked up, species assumed): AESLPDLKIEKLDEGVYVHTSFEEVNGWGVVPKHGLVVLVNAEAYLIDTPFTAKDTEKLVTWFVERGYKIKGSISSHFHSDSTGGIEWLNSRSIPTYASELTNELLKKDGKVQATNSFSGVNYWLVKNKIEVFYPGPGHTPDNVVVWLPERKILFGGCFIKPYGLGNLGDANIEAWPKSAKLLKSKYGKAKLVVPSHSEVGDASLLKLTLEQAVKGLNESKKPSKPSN

| Structure (SMILES) | IC50 (IMP-1; enzyme 2 pM) [nM] | IC50 (NDM-1; [4]) [nM] | IC50 (VIM-1; enzyme 30 pM) [nM] | NDM1 EC30005 MITC95 [1, 5] [µM] | VIM1 KP599644 MITC95 [2, 6] [µM] | IMP1 SM5741 MITC95 [3, 7] [µM] | IC50 (IMP-1; IMP-1 enzyme 2 pM) [nM] | IC50 (NDM-1; [8]) [nM] | IC50 (VIM-1; VIM-1 enzyme 30 pM) [nM] | NDM1 EC30005 MITC95 [1, 9] [µM] | VIM1 KP599644 MITC95 [2, 10] [µM] | IMP1 SM5741 MITC95 [3, 11] [µM] | IC50 (NDM-1; NDM1 IC50, enzyme 1 pM) [nM] |
| --- | --- | --- | --- | --- | --- | --- | --- | --- | --- | --- | --- | --- | --- |
| CCC[C@H](C(=O)O)[C@H](Cc1ccc(-c2ccccc2CN2CCOCC2)cc1)c1nn[nH]n1 [Example 214, (2S)-2-[(1S)-2-[2′-(morpholin-4-ylmethyl)biphenyl-4-yl]-1-(2H-tetrazol-5-yl)ethyl]pentanoic acid] | 10 | 24 | 180 | 7.8 | >200 | 2.0 |  |  |  |  |  |  |  |
| CCC[C@H](C(=O)O)[C@H](Cc1ccc(-c2cccc(CN)c2)cc1)c1nn[nH]n1 [Example 210, (2S)-2-[(1S)-2-[3′-(aminomethyl)biphenyl-4-yl]-1-(2H-tetrazol-5-yl)ethyl]pentanoic acid] | 130 | 100 | 8.2 | 6.2 | 18.8 | 12.5 |  |  |  |  |  |  |  |
| O=C(O)[C@@H](CCC1CCCCC1)[C@H](Cc1ccccc1)c1nnn[nH]1 [Example 11, (2S,3S)-2-(2-cyclohexylethyl)-4-phenyl-3-(1H-tetrazol-5-yl)butanoic acid] | 230 | 57 | 34 | 25 | >200 | 27 |  |  |  |  |  |  |  |
| CCC[C@H](C(=O)O)[C@H](Cc1ccc(-c2ccc(N)nc2)cc1)c1nn[nH]n1 [Example 200, (2S)-2-[(1S)-2-[4-(6-aminopyridin-3-yl)phenyl]-1-(2H-tetrazol-5-yl)ethyl]pentanoic acid] | 34 | 8.1 | 1.5 | 4.7 | 18.8 | 9.4 |  |  |  |  |  |  |  |
| CCC[C@H](C(=O)O)[C@H](Cc1ccc(-c2ccc(CN(C)C)cc2)cc1)c1nnn[nH]1 [Example 240, (2S)-2-[(1S)-2-{4′-[(dimethylamino)methyl]biphenyl-4-yl}-1-(1H-tetrazol-5-yl)ethyl]pentanoic acid] | 75 | 100 | 6.5 | 25 | 125 | 7.8 |  |  |  |  |  |  |  |
| CCC[C@H](C(=O)O)[C@H](Cc1ccc(-c2ccc(C(C)N3CCOCC3)cc2)cc1)c1nn[nH]n1 (stereo partly drawn) [Example 192, (2S)-2-[(1S)-2-[4′-(1-morpholin-4-ylethyl)biphenyl-4-yl]-1-(2H-tetrazol-5-yl)ethyl]pentanoic acid] | 45 | 29 | 29 | 7.8 | 200 | 9.4 |  |  |  |  |  |  |  |
| CCC[C@H](C(=O)O)[C@H](Cc1ccc(-c2cnn(C)c2)cc1)c1nnn[nH]1 [Example 233, (2S)-2-[(1S)-2-[4-(1-methyl-1H-pyrazol-4-yl)phenyl]-1-(1H-tetrazol-5-yl)ethyl]pentanoic acid] | 52 | 18 | 4 | 18.8 | 75 | 16 |  |  |  |  |  |  |  |
| O=C(O)[C@@H](CCCC1CCNCC1)[C@H](Cc1ccccc1)c1nnn[nH]1 [Example 36, (S)-2-((S)-2-phenyl-1-(1H-tetrazol-5-yl)ethyl)-5-(piperidin-4-yl)pentanoic acid] | 2000 | 30 | 21 | 60 | 100 | 108 |  |  |  |  |  |  |  |
| CCC[C@H](C(=O)O)[C@H](Cc1ccc(-c2cnc(N3CCCC3)s2)cc1)c1nn[nH]n1 [Example 196, (2S)-2-[(1S)-2-[4-(2-pyrrolidin-1-yl-1,3-thiazol-5-yl)phenyl]-1-(2H-tetrazol-5-yl)ethyl]pentanoic acid] | 45 | 9.5 | 4.1 | 7.8 | 125 | 14 |  |  |  |  |  |  |  |
| CCC[C@H](C(=O)O)[C@H](Cc1ccc(-c2cnn(Cc3ccncc3)c2)cc1)c1nnn[nH]1 [Example 250, (2S)-2-[(1S)-2-{4-[1-(pyridin-4-ylmethyl)-1H-pyrazol-4-yl]phenyl}-1-(1H-tetrazol-5-yl)ethyl]pentanoic acid] |  |  |  |  |  |  | 82 | 9.6 | 7.5 | 25 | >200 | 200 |  |
| CCCC[C@@H](C(=O)O)[C@@H](Cc1ccc(-c2ccc(S(N)(=O)=O)cc2)cc1)c1nn[nH]n1 [Example 184, (2R)-2-[(1R)-2-(4′-sulfamoylbiphenyl-4-yl)-1-(2H-tetrazol-5-yl)ethyl]hexanoic acid] | 200 | 900 | 300 | >200 | >200 | 100 |  |  |  |  |  |  |  |
| O=C(O)[C@@H](CCCC(F)(F)F)[C@H](Cc1ccccc1)c1nnn[nH]1 [Example 6, (S)-6,6,6-trifluoro-2-((S)-2-phenyl-1-(1H-tetrazol-5-yl)ethyl)hexanoic acid] | 730 | 240 | 130 | 75 | >200 | 106.3 |  |  |  |  |  |  |  |
| O=C(O)CCCC[C@H](C(=O)O)[C@H](Cc1ccccc1)c1nnn[nH]1 [Example 34, (S)-2-((S)-2-phenyl-1-(1H-tetrazol-5-yl)ethyl)heptanedioic acid] | 1500 | 200 | 40 | 25 | 200 | 200 |  |  |  |  |  |  |  |
| CCC[C@H](C(=O)O)[C@H](Cc1ccc(-c2ccncc2)cc1)c1nn[nH]n1 [Example 198, (2S)-2-[(1S)-2-(4-pyridin-4-ylphenyl)-1-(2H-tetrazol-5-yl)ethyl]pentanoic acid] | 75 | 14 | 1.2 | 6.2 | 18.8 | 6.2 |  |  |  |  |  |  |  |
| CCC[C@H](C(=O)O)[C@H](Cc1ccc(-c2ccccc2CN2CCCCC2)cc1)c1nn[nH]n1 [Example 205, (2S)-2-[(1S)-2-[2′-(piperidin-1-ylmethyl)biphenyl-4-yl]-1-(2H-tetrazol-5-yl)ethyl]pentanoic acid] | 63 | 500 | 360 | 50 | >200 | 7.8 |  |  |  |  |  |  |  |
| CCC[C@H](C(=O)O)[C@H](Cc1ccc(COCCN2CCOCC2)cc1)c1nn[nH]n1 [Example 252, (2S)-2-[(1S)-2-{4-[(2-morpholin-4-ylethoxy)methyl]phenyl}-1-(2H-tetrazol-5-yl)ethyl]pentanoic acid] |  |  |  |  |  |  | 800 | 180 | 89 | 15 | 50 | 150 |  |
| CCCC[C@@H](C(=O)O)[C@@H](Cc1ccc(-c2cn[nH]c2)cc1)c1nn[nH]n1 [Example 186, (2R)-2-[(1R)-2-[4-(1H-pyrazol-4-yl)phenyl]-1-(2H-tetrazol-5-yl)ethyl]hexanoic acid] | 140 | 750 | 60 | 200 | >200 | 12.5 |  |  |  |  |  |  |  |
| CCC[C@H](C(=O)O)[C@H](Cc1ccc(-c2ccc3c(c2)CNC3)nc1)c1nnn[nH]1 [Example 95, 5-(5-((2S,3S)-3-carboxy-2-(1H-tetrazol-5-yl)hexyl)pyridin-2-yl)isoindolin-2-ium] | 2500 | 160 | 6.5 | 3.1 | 12.5 | 50 |  |  |  |  |  |  |  |
| CCC[C@@H](C(=O)O)[C@H](Cc1ccccc1)c1nnn[nH]1 [Example 5, (R)-2-((S)-2-phenyl-1-(1H-tetrazol-5-yl)ethyl)pentanoic acid] | 1500 | 230 | 61 | 62.5 | 200 | >200 |  |  |  |  |  |  |  |
| CC(C)[C@H](C(=O)O)[C@H](Cc1ccc(C2=CCNCC2)cc1)c1nnn[nH]1 [Example 59, (2S,3S)-2-isopropyl-4-(4-(1,2,3,6-tetrahydropyridin-4-yl)phenyl)-3-(1H-tetrazol-5-yl)butanoic acid] | 55 |  | 10 | 12.5 | 150 | 56.2 |  |  |  |  |  |  | 9 |
